Assay results: article PMC9058255 (RSC Advances, 2020)
Like-named read-outs stand apart in the source and are kept apart here.

Legend:
MERS-S pseudovirus = assay: organism not typed; format: cell-based, MERS-CoV; settings: for IC50: read-out: IC50: 50% inhibitory concentration
in vitro = settings: human

| Molecule | IC50 (MERS-S pseudovirus; Huh-7, 48 h) [µM] | CC50 (in vitro) [µM] | also measured |
| --- | --- | --- | --- |
| COc1cccc(/C=N/c2ccc(-c3nc4ccccc4s3)cc2)c1O [Compound 1a, (E)-2-(((4-(Benzo[d]thiazol-2-yl)phenyl)imino)methyl)-6-methoxyphenol] |  |  | inhibitory activity against MERS-S pseudovirus (in words) (MERS-S pseudovirus): modest entry inhibitor; IC50 (MERS-S pseudovirus): 0.73 ± 0.66 µM |
| COc1cccc(/C=N/c2ccc(-c3nc4ccccc4o3)cc2)c1O [Compound 1b, (E)-2-(((4-(Benzo[d]oxazol-2-yl)phenyl)imino)methyl)-6-methoxyphenol] | > 10 |  | inhibitory activity against MERS-S pseudovirus (in words) (MERS-S pseudovirus): lost inhibitory activity |
| COc1cccc(/C=N/c2ccc(-c3nc4ccccc4[nH]3)cc2)c1O [Compound 1c, (E)-2-(((4-(1H-Benzo[d]imidazol-2-yl)phenyl)imino)methyl)-6-methoxyphenol] | > 10 |  | inhibitory activity against MERS-S pseudovirus (in words) (MERS-S pseudovirus): lost inhibitory activity |
| COc1cccc(/C=N/c2ccc(-c3nc4ccccc4s3)nc2)c1O [Compound 1d, (E)-2-(((6-(Benzo[d]thiazol-2-yl)pyridin-3-yl)imino)methyl)-6-methoxyphenol] | 2.7 ± 0.19 |  | inhibitory activity against MERS-S pseudovirus (in words) (MERS-S pseudovirus): Modest inhibitory activity |
| COc1cccc(/C=N/c2nc3ccccc3s2)c1O [Compound 1e, (E)-2-((benzo[d]thiazol-2-ylimino)methyl)-6-methoxyphenol] | > 10 |  | inhibitory activity against MERS-S pseudovirus (in words) (MERS-S pseudovirus): lost inhibitory activity |
| COc1cccc(CNc2ccc(-c3nc4ccccc4s3)cc2)c1O [Compound 1f, 2-(((4-(benzo[d]thiazol-2-yl)phenyl)amino)methyl)-6-methoxy-phenol] | > 10 |  | inhibitory activity against MERS-S pseudovirus (in words) (MERS-S pseudovirus): inhibitory activity was markedly reduced |
| COc1cccc(C(=O)Nc2ccc(-c3nc4ccccc4s3)cc2)c1O [Compound 1g, N-(4-(benzo[d]thiazol-2-yl)phenyl)-2-hydroxy-3-methoxybenzamide] | > 10 |  | inhibitory activity against MERS-S pseudovirus (in words) (MERS-S pseudovirus): inhibitory activity was markedly reduced |
| C(=N\c1ccc(-c2nc3ccccc3s2)cc1)/c1ccccc1 [Compound 1h, (E)-N-(4-(Benzo[d]thiazol-2-yl)phenyl)-1-phenylmethanimine] | 0.57 ± 0.11 | > 100 |  |
| Oc1ccccc1/C=N/c1ccc(-c2nc3ccccc3s2)cc1 [Compound 1i, (E)-2-(((4-(Benzo[d]thiazol-2-yl)phenyl)imino)methyl)phenol] | 0.52 ± 0.03 | > 100 |  |
| Oc1cccc(/C=N/c2ccc(-c3nc4ccccc4s3)cc2)c1O [Compound 1k, (E)-3-(((4-(Benzo[d]thiazol-2-yl)phenyl)imino)methyl)benzene-1,2-diol] | 0.4 ± 0.01 | > 100 |  |
| COc1ccc(/C=N/c2ccc(-c3nc4ccccc4s3)cc2)cc1O [Compound 1l, (E)-5-(((4-(Benzo[d]thiazol-2-yl)phenyl)imino)methyl)-2-methoxyphenol] | 0.22 ± 0.03 | > 100 |  |
| C(=N\c1ccc(-c2nc3ccccc3s2)cc1)/c1cccnc1 [Compound 1m, (E)-N-(4-(Benzo[d]thiazol-2-yl)phenyl)-1-(pyridin-3-yl)methanimine] | 0.34 ± 0.24 | > 100 |  |
| C(=N\c1ccc(-c2nc3ccccc3s2)cc1)/c1ccoc1 [Compound 1n, (E)-N-(4-(Benzo[d]thiazol-2-yl)phenyl)-1-(furan-3-yl)methanimine] | > 10 | > 100 |  |
| C(=N\c1ccc(-c2nc3ccccc3s2)cc1)/c1ccsc1 [Compound 1o, (E)-N-(4-(Benzo[d]thiazol-2-yl)phenyl)-1-(thiophen-3-yl)methanimine] | 0.14 ± 0.06 | > 100 |  |
| C(=N\c1ccc(-c2nc3ccccc3s2)cc1)/c1cc[nH]c1 [Compound 1p, (E)-N-(4-(Benzo[d]thiazol-2-yl)phenyl)-1-(1H-pyrrol-3-yl)methanimine] | > 10 | > 100 |  |
| C(=N\c1ccc(-c2nc3ccccc3s2)cc1)/c1cccs1 [Compound 1q, (E)-N-(4-(Benzo[d]thiazol-2-yl)phenyl)-1-(thiophen-2-yl)methanimine] | 6.52 ± 1.14 | > 100 | inhibitory activity against MERS-S pseudovirus (in words) (MERS-S pseudovirus): modest inhibitory capacity |
| O=[N+]([O-])c1cc(/C=N/c2ccc(-c3nc4ccccc4s3)cc2)cs1 [Compound 1r, (E)-N-(4-(Benzo[d]thiazol-2-yl)phenyl)-1-(5-nitrothiophen-3-yl)methanimine] | 0.62 ± 0.31 | > 100 |  |
| C(=N\c1ccc(-c2nc3ccccc3s2)cc1)/c1cscn1 [Compound 1s, (E)-N-(4-(Benzo[d]thiazol-2-yl)phenyl)-1-(thiazol-4-yl)methanimine] | > 10 | > 100 |  |
| C(=N\c1ccc(-c2nc3ccccc3s2)cc1)/c1cncs1 [Compound 1t, (E)-N-(4-(Benzo[d]thiazol-2-yl)phenyl)-1-(thiazol-5-yl)methanimine] | 8.8 ± 0.01 | > 100 |  |

| Molecule | IC50 (MERS-S pseudovirus; Huh-7, 48 h) [µM] | CC50 (in vitro) [µM] | also measured |
| --- | --- | --- | --- |
| C(=N\c1ccc(-c2nc3ccccc3s2)cc1)/c1nccs1 [Compound 1u, (E)-N-(4-(Benzo[d]thiazol-2-yl)phenyl)-1-(thiazol-2-yl)methanimine] | > 10 | > 100 |  |
| C(=N\c1ccc(-c2nc3ncccc3s2)cc1)/c1ccsc1 [Compound 4a, (E)-N-(4-(Thiazolo[4,5-b]pyridin-2-yl)phenyl)-1-(thiophen-3-yl)methanimine] | > 10 |  |  |
| C(=N\c1ccc(-c2nc3c(s2)CCCC3)cc1)/c1ccsc1 [Compound 4b, (E)-N-(4-(4,5,6,7-Tetrahydrobenzo[d]thiazol-2-yl)phenyl)-1-(thiophen-3-yl) methanimine] | > 10 |  |  |
| C(=N\c1ccc(-c2cn3c(n2)sc2ccccc23)cc1)/c1ccsc1 [Compound 4c, (E)-N-(4-(Benzo[d]imidazo[2,1-b]thiazol-2-yl)phenyl)-1-(thiophen-3-yl) methanimine] | > 10 |  |  |
| C(=N\c1ccc(-c2cn3ccccc3n2)cc1)/c1ccsc1 [Compound 4d, (E)-N-(4-(Imidazo[1,2-a]pyridin-2-yl)phenyl)-1-(thiophen-3-yl)methanimine] | > 10 |  |  |
| Fc1cccc2nc(-c3ccc(/N=C/c4ccsc4)cc3)sc12 [Compound 4e, (E)-N-(4-(7-Fluorobenzo[d]thiazol-2-yl)phenyl)-1-(thiophen-3-yl)methanimine] | 1.67 ± 0.3 |  |  |
| Fc1ccc2nc(-c3ccc(/N=C/c4ccsc4)cc3)sc2c1 [Compound 4f, (E)-N-(4-(6-Fluorobenzo[d]thiazol-2-yl)phenyl)-1-(thiophen-3-yl)methanimine] | 0.09 ± 0.01 |  |  |
| Fc1ccc2sc(-c3ccc(/N=C/c4ccsc4)cc3)nc2c1 [Compound 4g, (E)-N-(4-(5-Fluorobenzo[d]thiazol-2-yl)phenyl)-1-(thiophen-3-yl)methanimine] | 1 ± 0.07 |  |  |
| Fc1cccc2sc(-c3ccc(/N=C/c4ccsc4)cc3)nc12 [Compound 4h, (E)-N-(4-(4-Fluorobenzo[d]thiazol-2-yl)phenyl)-1-(thiophen-3-yl)methanimine] | 0.53 ± 0.02 |  |  |
| CCOc1ccc2nc(-c3ccc(/N=C/c4ccsc4)cc3)sc2c1 [Compound 4i, (E)-N-(4-(6-Ethoxybenzo[d]thiazol-2-yl)phenyl)-1-(thiophen-3-yl)methanimine] | > 10 |  |  |
| Cc1ccc2nc(-c3ccc(/N=C/c4ccsc4)cc3)sc2c1 [Compound 4j, (E)-N-(4-(6-Methylbenzo[d]thiazol-2-yl)phenyl)-1-(thiophen-3-yl)methanimine] | > 10 |  |  |
| CNc1ccc2nc(-c3ccc(/N=C/c4ccsc4)cc3)sc2c1 [Compound 4k, (E)-N-Methyl-2-(4-((thiophen-3-ylmethylene)amino)phenyl)benzo[d]thiazol-6-amine] | > 10 |  |  |
| CN(C)c1ccc2nc(-c3ccc(/N=C/c4ccsc4)cc3)sc2c1 [Compound 4l, (E)-N,N-Dimethyl-2-(4-((thiophen-3-ylmethylene)amino)phenyl)benzo[d]thiazol-6-amine] | > 10 |  |  |
| O=C(O)c1ccc2nc(-c3ccc(/N=C/c4ccsc4)cc3)sc2c1 [Compound 4m, (E)-2-(4-((Thiophen-3-ylmethylene)amino)phenyl)benzo[d]thiazole-6-carboxylic acid] | > 10 |  |  |
| CNC(=O)c1ccc2nc(-c3ccc(/N=C/c4ccsc4)cc3)sc2c1 [Compound 4n, (E)-N-Methyl-2-(4-((thiophen-3-ylmethylene)amino)phenyl)benzo[d]thiazole-6-carboxamide] | > 10 |  |  |
| C(=N\c1ccc(Oc2nc3ccccc3s2)cc1)/c1ccsc1 [Compound 4o, (E)-N-(4-(Benzo[d]thiazol-2-yloxy)phenyl)-1-(thiophen-3-yl)methanimine] | > 10 |  | inhibitory activity against MERS-S pseudovirus (in words) (MERS-S pseudovirus): inhibitory activity was abolished |
| C(=N\c1ccc(Sc2nc3ccccc3s2)cc1)/c1ccsc1 [Compound 4p, (E)-N-(4-(Benzo[d]thiazol-2-ylthio)phenyl)-1-(thiophen-3-yl)methanimine] | > 10 |  | inhibitory activity against MERS-S pseudovirus (in words) (MERS-S pseudovirus): inhibitory activity was abolished |
| (E)-N-(4-(Benzo[d]thiazol-2-yl)phenyl)-1-(3-methoxyphenyl)methanimine [Compound 1j] |  |  | CC50 (Huh-7 cells): > 100 µM; IC50 (MERS-S pseudovirus): 0.2 ± 0.05 µM |
